Assay results from patent US20110300116A1, “Method for Generating a Recombinant Clonal Cell Line and Novel Reagents for Use in the Method” (CELLAURA TECHNOLOGIES LTD, priority 2007, published 2011).

Biological target: T1, human dopamine D1 receptor (Homo sapiens, UniProt P21728)
T1 construct: expressed in transfected cells; host or cells: CHO cells
Test: Confocal imaging of fluorescent ligand binding to a mixed population cell line expressing the human dopamine D1 receptor
Assay type: cell-based
Settings: ligand 10 nM; human D1-receptor expressing CHO mixed population before antibiotic resistance selection and prior to FACS sorting; confocal microscopy, FIG. 3
Method: In FIG. 3 is shown a confocal microscope image of N-{4-aza-3,7-dioxo-7-[4-(8-methoxy-3-methyl-2,3,4,5-tetrahydro-1H-3-benzazepine-1-yl)phenylamino]heptyl}-6-{2-[4-(2-(4,4-difluoro-4,4a-dihydro-5-(thiophen-2-yl)-4-bora-3a,4a-diaza-s-indacene-3-yl)vinyl) ligand (10 nM) binding to human dopamine D1-receptor expressing CHO “cell line” before antibiotic resistance selection and prior to FACS™ sorting. Red images (light grey) show cells binding the fluorescent D1-receptor antagonist and the blue images (dark grey) show the Hoechst staining of the cellular nuclei. It is clear that only about 20% of the cells are expressing the human dopamine D1 receptor.
A mixed population cell line expressing the human dopamine D1 receptor was screened with novel fluorescent dopamine D1 receptor antagonist N-{4-aza-3,7-dioxo-7-[4-(8-methoxy-3-methyl-2,3,4,5-tetrahydro-1H-3-benzazepine-1-yl)phenylamino]heptyl}-6-{2-[4-(2-(4,4-difluoro-4,4a-dihydro-5-(thiophen-2-yl)-4-bora-3a,4a-diaza-s-indacene-3-yl)vinyl), prepared as in Example 1. […] Using FACS cell sorting, these cells are sorted and separated into populations of cells expressing low, medium or high levels of the dopamine D1 receptor. […] A cell sorter such as the Beckman-Coulter Altra can then be used to put individual cells into single wells of a 96 well plate.

T1 sequence (P21728 whole entry): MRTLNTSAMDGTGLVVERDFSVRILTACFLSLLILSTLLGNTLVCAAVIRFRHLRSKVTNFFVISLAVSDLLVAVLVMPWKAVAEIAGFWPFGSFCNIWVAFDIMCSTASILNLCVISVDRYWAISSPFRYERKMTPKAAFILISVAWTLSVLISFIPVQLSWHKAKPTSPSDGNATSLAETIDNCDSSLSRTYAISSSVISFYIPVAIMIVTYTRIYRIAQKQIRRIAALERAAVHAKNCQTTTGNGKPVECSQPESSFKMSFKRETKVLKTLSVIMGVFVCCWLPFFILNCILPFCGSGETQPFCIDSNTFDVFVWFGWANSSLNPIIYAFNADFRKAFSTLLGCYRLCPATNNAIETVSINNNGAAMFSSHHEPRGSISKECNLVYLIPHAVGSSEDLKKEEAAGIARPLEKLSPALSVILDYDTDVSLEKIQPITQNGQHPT

CN1CCc2ccc(O)cc2C(c2ccc(NC(=O)CCNC(=O)CCNC(=O)CCCCCNC(=O)COc3ccc(/C=C/C4=[N+]5C(=Cc6ccc(-c7cccs7)n6[B-]5(F)F)C=C4)cc3)cc2)C1 (stereo not shown)
cells that label with the fluorescent D1-receptor antagonist: about 20%
